Molecules are shown by their SMILES. pIC50: −log10 of the molar value. Calls of active or inactive are those of the source. No cut-off for these calls is given here.

These results are taken from ChEMBL document CHEMBL3822399, “Discovery of novel, high potent, ABC type PTP1B inhibitors with TCPTP selectivity and cellular activity” (Eur J Med Chem, 2016).

Assay [1] deals with T1, Tyrosine-protein phosphatase non-receptor type 1 (Homo sapiens, UniProt P18031).
T1 sequence (P18031 whole entry): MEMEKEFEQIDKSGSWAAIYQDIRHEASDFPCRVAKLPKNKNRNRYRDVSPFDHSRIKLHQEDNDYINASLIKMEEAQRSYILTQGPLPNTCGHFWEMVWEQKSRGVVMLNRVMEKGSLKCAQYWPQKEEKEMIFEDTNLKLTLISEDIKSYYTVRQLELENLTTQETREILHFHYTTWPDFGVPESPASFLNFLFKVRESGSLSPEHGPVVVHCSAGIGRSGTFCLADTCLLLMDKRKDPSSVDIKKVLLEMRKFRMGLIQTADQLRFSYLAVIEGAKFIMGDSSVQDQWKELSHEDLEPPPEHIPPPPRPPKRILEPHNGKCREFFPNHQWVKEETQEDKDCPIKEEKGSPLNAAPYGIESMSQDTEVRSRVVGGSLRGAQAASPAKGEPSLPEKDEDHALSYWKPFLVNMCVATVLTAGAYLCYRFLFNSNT
In words: Inhibition of recombinant PTP1B (unknown origin) using pNPP as substrate incubated for 30 mins.

Assay [2] concerns the target T2, Receptor-type tyrosine-protein phosphatase F (Homo sapiens, UniProt P10586). Description: Inhibition of human LAR using pNPP as substrate at 25 uM incubated for 30 mins relative to control.
Assay [3] addresses T3, Tyrosine-protein phosphatase non-receptor type 2 (Homo sapiens, UniProt P17706).
T3 sequence (P17706 whole entry): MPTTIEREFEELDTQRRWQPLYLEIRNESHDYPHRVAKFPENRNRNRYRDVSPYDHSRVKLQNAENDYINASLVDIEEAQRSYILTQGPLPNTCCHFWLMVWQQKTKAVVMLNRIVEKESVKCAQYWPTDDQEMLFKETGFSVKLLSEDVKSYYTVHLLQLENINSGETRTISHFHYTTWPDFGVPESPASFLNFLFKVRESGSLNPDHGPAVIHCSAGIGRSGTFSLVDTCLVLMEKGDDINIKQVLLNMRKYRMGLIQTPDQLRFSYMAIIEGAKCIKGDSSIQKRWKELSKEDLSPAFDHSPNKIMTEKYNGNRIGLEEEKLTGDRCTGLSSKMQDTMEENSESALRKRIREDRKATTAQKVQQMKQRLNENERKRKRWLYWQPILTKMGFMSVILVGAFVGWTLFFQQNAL
Description: Inhibition of human TCPTP using pNPP as substrate incubated for 30 mins.

Assay [4] is filed under the species Homo sapiens. In words: Selectivity ratio of IC50 for human SHP1 to IC50 for recombinant PTP1B (unknown origin).
Assay [5] addresses T4, Tyrosine-protein phosphatase non-receptor type 6 (Homo sapiens, UniProt P29350). Description: Inhibition of human SHP1 using pNPP as substrate incubated for 30 mins.
Assay [6] concerns the target T5, Tyrosine-protein phosphatase non-receptor type 11 (Homo sapiens) (UniProt Q06124).
T5 sequence (whole entry): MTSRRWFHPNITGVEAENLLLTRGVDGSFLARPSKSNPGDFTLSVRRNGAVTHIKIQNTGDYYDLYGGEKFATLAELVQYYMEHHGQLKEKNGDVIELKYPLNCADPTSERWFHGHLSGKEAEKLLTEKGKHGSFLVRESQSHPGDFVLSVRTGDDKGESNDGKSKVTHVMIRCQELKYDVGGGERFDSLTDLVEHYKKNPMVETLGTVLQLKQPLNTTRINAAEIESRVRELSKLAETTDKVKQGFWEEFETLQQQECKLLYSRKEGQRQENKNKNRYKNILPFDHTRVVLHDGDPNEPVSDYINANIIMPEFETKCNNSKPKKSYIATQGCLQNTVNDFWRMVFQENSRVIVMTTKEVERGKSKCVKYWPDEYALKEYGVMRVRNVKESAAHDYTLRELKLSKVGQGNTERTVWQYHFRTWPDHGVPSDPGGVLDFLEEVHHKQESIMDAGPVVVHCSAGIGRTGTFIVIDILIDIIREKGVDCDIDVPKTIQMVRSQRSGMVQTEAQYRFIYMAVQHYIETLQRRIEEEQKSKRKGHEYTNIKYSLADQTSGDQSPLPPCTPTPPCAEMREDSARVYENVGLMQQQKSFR
In words: Inhibition of human SHP2 using pNPP as substrate at 25 uM incubated for 30 mins relative to control.

Assay [7] has as its target T6, Tyrosine-protein phosphatase non-receptor type 1 (Rattus norvegicus) (UniProt P20417).
T6 sequence (whole entry): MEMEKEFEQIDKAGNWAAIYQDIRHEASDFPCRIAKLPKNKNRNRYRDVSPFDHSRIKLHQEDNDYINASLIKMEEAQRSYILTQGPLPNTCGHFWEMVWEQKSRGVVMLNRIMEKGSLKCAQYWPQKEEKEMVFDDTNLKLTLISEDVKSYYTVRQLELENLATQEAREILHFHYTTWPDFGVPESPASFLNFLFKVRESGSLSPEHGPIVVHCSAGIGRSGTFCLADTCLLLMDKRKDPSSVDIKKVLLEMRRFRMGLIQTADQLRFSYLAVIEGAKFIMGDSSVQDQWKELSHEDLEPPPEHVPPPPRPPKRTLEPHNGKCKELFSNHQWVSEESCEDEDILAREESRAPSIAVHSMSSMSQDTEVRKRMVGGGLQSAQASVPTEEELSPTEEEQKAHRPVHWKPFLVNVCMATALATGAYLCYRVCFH
Description: Inhibition of PTP1B in rat L6 cells assessed as increase in insulin-stimulated 2-NBDG uptake at 5 uM preincubated for 4 hrs followed by insulin stimulation for 10 mins and subsequent addition of 2-NBDG measured after 30 mins by fluorescence assay relative to control. The class given is cell-based. Details: scale not given: the % may be the effect or the level left.

For assay [8], the target named is T2, Receptor-type tyrosine-protein phosphatase F. Description: Inhibition of human LAR using pNPP as substrate incubated for 30 mins.
Assay [9] addresses T7, Tyrosine-protein phosphatase non-receptor type 11 (Homo sapiens, UniProt Q06124).
T7 sequence (Q06124 whole entry): T5 sequence (whole entry)
In words: Inhibition of human SHP2 using pNPP as substrate incubated for 30 mins.

The subject of assay [10] is CHO. In words: Inhibition of PTP1B in CHO cells expressing human IR assessed as increase in insulin-mediated IR-beta phosphorylation at tyrosine residue 20 at 15 to 30 uM preincubated for 4 hrs followed by insulin stimulation measured after 10 mins by western blot analysis. It is filed as cell-based. As to conditions: Cricetulus griseus. (In general: In western blotting, separated proteins are transferred to a membrane and probed.)

Assay [11] deals with T6, Tyrosine-protein phosphatase non-receptor type 1 (Rattus norvegicus). Description: Inhibition of PTP1B in rat L6 cells assessed as increase in insulin-stimulated 2-NBDG uptake at 20 uM preincubated for 4 hrs followed by insulin stimulation for 10 mins and subsequent addition of 2-NBDG measured after 30 mins by fluorescence assay relative to control. It is filed as cell-based. Also noted: scale not given: the % may be the effect or the level left.

Assay [12] shares this target. In words: Inhibition of PTP1B in rat L6 cells assessed as increase in insulin-stimulated 2-NBDG uptake at 10 uM preincubated for 4 hrs followed by insulin stimulation for 10 mins and subsequent addition of 2-NBDG measured after 30 mins by fluorescence assay relative to control. It is filed as cell-based. Also noted: scale not given: the % may be the effect or the level left.

The target in assay [13] is T8, Tyrosine-protein phosphatase non-receptor type 1 (Homo sapiens) (UniProt P18031).
T8 sequence (whole entry): T1 sequence (P18031 whole entry)
Description: Inhibition of recombinant PTP1B (unknown origin) using pNPP as substrate at 25 uM incubated for 30 mins relative to control.

For assay [14], the target named is T4, Tyrosine-protein phosphatase non-receptor type 6. In words: Inhibition of human SHP1 using pNPP as substrate at 25 uM incubated for 30 mins relative to control.
The target of assay [15] is T9, Tyrosine-protein phosphatase non-receptor type 2 (Homo sapiens) (UniProt P17706).
T9 sequence (whole entry): T3 sequence (P17706 whole entry)
In words: Inhibition of human TCPTP using pNPP as substrate at 25 uM incubated for 30 mins relative to control.

T4 sequence (P29350 whole entry): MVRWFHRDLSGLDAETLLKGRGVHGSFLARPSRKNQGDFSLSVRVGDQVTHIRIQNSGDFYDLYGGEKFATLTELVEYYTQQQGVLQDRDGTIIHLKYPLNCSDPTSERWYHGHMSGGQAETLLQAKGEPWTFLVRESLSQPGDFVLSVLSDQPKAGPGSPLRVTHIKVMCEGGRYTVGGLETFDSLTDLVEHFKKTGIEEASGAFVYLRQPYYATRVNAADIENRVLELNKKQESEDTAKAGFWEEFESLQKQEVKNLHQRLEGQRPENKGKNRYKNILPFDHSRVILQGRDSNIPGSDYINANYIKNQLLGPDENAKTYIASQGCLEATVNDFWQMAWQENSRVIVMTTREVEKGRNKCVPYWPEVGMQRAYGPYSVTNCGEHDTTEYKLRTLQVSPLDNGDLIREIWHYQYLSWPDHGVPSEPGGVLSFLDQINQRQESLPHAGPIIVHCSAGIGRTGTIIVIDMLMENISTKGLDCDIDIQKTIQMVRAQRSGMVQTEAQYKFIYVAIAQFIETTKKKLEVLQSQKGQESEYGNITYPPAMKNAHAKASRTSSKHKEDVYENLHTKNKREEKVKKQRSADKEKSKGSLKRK
T2 sequence (P10586 whole entry): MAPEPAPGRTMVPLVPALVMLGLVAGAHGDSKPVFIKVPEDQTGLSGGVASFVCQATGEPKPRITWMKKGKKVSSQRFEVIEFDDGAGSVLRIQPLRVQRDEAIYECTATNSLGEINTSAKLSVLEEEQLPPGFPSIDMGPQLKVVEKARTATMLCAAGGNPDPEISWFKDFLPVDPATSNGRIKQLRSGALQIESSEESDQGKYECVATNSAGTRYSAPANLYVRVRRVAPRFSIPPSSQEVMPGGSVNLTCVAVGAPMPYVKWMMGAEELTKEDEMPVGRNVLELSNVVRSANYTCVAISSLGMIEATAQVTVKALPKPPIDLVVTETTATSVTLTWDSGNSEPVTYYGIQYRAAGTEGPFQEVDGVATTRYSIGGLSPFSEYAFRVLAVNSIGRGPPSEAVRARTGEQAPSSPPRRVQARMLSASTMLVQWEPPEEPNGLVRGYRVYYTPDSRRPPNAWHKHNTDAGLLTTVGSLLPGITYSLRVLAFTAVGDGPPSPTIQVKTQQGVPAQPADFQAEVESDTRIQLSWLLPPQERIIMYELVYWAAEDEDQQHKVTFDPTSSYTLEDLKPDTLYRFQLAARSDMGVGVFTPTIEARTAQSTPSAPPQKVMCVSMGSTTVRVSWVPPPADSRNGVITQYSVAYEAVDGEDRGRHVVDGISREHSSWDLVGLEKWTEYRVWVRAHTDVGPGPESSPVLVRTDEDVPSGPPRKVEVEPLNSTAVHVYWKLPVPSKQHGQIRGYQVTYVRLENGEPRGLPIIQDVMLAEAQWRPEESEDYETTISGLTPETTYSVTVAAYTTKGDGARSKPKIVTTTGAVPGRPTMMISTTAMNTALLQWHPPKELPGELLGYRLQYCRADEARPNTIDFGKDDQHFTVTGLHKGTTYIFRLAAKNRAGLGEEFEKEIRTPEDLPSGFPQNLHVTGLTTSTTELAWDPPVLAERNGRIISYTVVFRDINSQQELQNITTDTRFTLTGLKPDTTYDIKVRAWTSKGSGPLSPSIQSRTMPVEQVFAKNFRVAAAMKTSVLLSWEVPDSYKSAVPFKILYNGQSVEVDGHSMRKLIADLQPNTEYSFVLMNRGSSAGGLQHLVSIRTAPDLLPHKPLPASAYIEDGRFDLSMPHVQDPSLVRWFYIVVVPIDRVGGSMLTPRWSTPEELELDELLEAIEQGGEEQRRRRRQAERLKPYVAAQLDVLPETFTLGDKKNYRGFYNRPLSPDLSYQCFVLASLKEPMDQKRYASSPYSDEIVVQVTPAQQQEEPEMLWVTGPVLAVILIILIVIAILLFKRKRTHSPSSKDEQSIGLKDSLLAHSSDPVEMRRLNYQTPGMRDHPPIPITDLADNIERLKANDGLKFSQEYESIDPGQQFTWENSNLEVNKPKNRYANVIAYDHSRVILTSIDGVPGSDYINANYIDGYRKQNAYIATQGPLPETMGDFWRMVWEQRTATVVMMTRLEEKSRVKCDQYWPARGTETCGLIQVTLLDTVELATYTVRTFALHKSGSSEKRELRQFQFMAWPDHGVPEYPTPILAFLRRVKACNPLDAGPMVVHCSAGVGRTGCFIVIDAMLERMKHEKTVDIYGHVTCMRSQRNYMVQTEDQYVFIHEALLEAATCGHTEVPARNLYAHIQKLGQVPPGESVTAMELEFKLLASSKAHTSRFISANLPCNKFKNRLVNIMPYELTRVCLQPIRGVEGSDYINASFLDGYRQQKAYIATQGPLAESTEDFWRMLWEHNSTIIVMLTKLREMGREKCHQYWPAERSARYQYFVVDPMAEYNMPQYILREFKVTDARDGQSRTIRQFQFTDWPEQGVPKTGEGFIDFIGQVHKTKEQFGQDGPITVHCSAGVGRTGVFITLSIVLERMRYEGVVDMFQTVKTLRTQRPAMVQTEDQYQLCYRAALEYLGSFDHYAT

For orientation: pIC50 means the negative decadic logarithm of the IC50, by convention in mol/L. In general, inhibition refers to the change of the read-out against control, counted positive when it falls. Consider `COC(=O)CN(c1ccc(CN(c2ccc(OCc3ccccc3)c(C(=O)OC)c2)S(=O)(=O)Cc2ccccc2)cc1)S(C)(=O)=O`, for which the pIC50 was 6.45 in [1], 6.37 in assay [3] and 5.19 in [5]. For the same molecule, the inhibition in [2] and in assay [6] was under 50% throughout. The Ratio IC50 in [4] was 18.

On to `COC(=O)CN(c1ccc(CN(c2ccc(OCc3ccc(C)cc3)c(C(=O)OC)c2)S(=O)(=O)Cc2ccccc2)cc1)S(C)(=O)=O`, for which the pIC50 in [1] is 7.30; in assay [8] it was 4.90; in [3], 6.12; in assay [9], 5.67; in assay [5], 5.61. The Activity amounted to 16% in assay [7], 38.1% in assay [11] and 19% in assay [12]. For the same molecule, in assay [4], the Ratio IC50 is 49. In addition, in assay [10], the inhibition entry is “Active”.

Regarding `CCCCOc1ccc(N(Cc2ccc(N(CC(=O)OC)S(C)(=O)=O)cc2)S(=O)(=O)Cc2ccccc2)cc1C(=O)OC`, the negative logarithm of the IC50 (pIC50) in [1] was 5.32.

Take `CCOc1ccc(N(Cc2ccc(N(CC(=O)OC)S(C)(=O)=O)cc2)S(=O)(=O)Cc2ccccc2)cc1C(=O)OC`: the inhibition in assay [13] is under 50%.

Consider `COC(=O)CN(c1ccc(CN(c2ccc(OCc3cccc(C)c3)c(C(=O)OC)c2)S(=O)(=O)Cc2ccccc2)cc1)S(C)(=O)=O`, for which the inhibition in [13] was under 50%.

As for `CCCOc1ccc(N(Cc2ccc(N(CC(=O)OC)S(C)(=O)=O)cc2)S(=O)(=O)Cc2ccccc2)cc1C(=O)OC`, the pIC50 in assay [1] was 6.03. Further, the Activity was 6.9% in assay [7], 27.7% in assay [11] and 26.1% in assay [12]. Besides, the inhibition in assay [2], in [14], in [15] and in assay [6] was under 50% each time.

For `COC(=O)CN(c1ccc(CN(c2ccc(OCc3ccccc3)cc2)S(=O)(=O)Cc2ccccc2)cc1)S(C)(=O)=O`, the pIC50 in assay [1] is 4.80.

With `CC1(C)CC[C@]2(C(=O)O)CC[C@]3(C)C(=CC[C@@H]4[C@@]5(C)CC[C@H](O)C(C)(C)[C@@H]5CC[C@]43C)[C@@H]2C1` [OLEANOLIC_ACID], the pIC50 was 4.65 in [8] and 4.93 in assay [9].
